The source of these data is US8524906B2, “Tetrahydrothiazolopyridine inhibitors of phosphatidylinositol 3-kinase” (Vertex Pharmaceuticals Incorporated, priority 2009, dated 2013).

The assay deals with PI3Kγ (Homo sapiens, UniProt P48736). The experiment in a line: PI3K Inhibition Assay (33P-ATP, PI(4,5)P2 substrate, filter plate scintillation counting). The note with it: 3 μM ATP, 30 μM PI(4,5)P2, 2 nM final enzyme, 30 min at 25° C., competitive tight binding Ki fit. In kind it is biochemical. The procedure:
One test well also contained 1.5 μL of DMSO with no compound. […] Using a Titertek Multidrop, 50 μL of Reaction Mix [100 mM HEPES pH 7.5, 50 mM NaCl, 10 mM DTT, 0.2 mg/mL BSA, 60 μM phosphatidylinositol(4,5)-bisphosphate diC16 (PI(4,5)P2; Avanti Polar Lipids, Cat. No. 840046P) and PI3K isoform of interest (see Table 3 for isoform concentrations)] was added to each well. To initiate the reaction, 50 μL of ATP Mix [20 mM MgCl2, 6 μM ATP (100 μCi/μmole ^33P-ATP)] was added each well, followed by incubating the wells for 30 min. at 25° C. Final concentrations in each well were 50 mM HEPES 7.5, 10 mM MgCl2, 25 mM NaCl, 5 mM DTT, 0.1 mg/mL BSA, 30 μM PI(4,5)P2, 3 μM ATP, and the PI3K isoform of interest (see Table 3). Final compound concentrations in each well ranged from 10 μM to 1 nM.
After incubation, the reactions in each well were quenched by addition of 50 μL of stop solution [30% TCA/Water, 10 mM ATP]. […] 50 μL of scintillation fluid was added to each well and the plate read on a Perkin-Elmer TopCount™ NXT liquid scintillation counter to obtain ^33P-counts representing inhibition values.
The value for the background well was subtracted from the value obtained for each test well and the data were fit to the competitive tight binding Ki equation described by Morrison and Stone, Comments Mol. Cell Biophys.

“And” between values parts separate entries of the source, which are not always exact repeats. Equal entries are not always repeated. Where two headings read alike, the source gives them in different places. Bounds are passed on as bounds.

By Ki is commonly meant the dissociation constant of the complex between target and ligand, obtained from inhibition or displacement.

Chain of PI3Kγ (P48736 whole entry, species assumed, canonical isoform): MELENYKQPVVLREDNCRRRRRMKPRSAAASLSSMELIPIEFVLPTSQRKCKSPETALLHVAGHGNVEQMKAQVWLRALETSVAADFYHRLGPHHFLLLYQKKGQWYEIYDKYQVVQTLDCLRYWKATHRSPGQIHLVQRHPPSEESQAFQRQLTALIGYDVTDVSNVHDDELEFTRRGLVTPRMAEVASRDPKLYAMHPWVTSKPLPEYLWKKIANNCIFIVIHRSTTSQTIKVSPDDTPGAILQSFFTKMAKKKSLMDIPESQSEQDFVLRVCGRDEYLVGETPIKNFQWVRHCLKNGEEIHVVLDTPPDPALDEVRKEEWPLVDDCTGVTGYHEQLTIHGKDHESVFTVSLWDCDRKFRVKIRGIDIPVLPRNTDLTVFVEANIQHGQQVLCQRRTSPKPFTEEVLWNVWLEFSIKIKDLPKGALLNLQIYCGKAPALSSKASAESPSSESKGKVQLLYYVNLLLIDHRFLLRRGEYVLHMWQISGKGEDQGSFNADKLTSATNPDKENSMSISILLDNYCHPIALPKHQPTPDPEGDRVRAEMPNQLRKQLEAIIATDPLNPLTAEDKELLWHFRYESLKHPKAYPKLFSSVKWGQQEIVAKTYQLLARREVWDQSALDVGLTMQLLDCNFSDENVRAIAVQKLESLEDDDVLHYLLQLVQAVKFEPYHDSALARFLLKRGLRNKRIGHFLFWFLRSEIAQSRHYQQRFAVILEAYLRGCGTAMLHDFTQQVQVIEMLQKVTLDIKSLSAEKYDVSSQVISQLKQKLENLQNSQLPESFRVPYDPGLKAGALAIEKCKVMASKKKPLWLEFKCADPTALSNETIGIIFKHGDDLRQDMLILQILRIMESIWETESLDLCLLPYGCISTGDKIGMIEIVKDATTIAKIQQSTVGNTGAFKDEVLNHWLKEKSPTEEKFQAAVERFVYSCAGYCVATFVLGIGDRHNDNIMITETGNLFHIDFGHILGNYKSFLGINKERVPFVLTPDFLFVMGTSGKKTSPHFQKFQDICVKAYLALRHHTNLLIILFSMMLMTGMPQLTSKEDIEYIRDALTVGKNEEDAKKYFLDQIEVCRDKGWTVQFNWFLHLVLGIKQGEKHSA

For the molecule `COc1cc(N2CCc3nc(NC(=O)NCCCl)sc3C2)cnc1OC` [Compound 11], the Ki (Ki for PI3Kγ) is less than 100 nM.
For `COc1cc(N2CCc3nc(NC(=O)CCNC(C)=O)sc3C2)cnc1Cl` [Compound 44], under “read-out: Ki for PI3Kγ”, the Ki was less than 100 nM.
As to `CC(=O)Nc1nc2c(s1)CN(c1cncc(C(F)(F)F)c1)CC2` [Compound 7], the Ki (read-out: Ki for PI3Kγ) is less than 100 nM.
Regarding `COc1cc(N2CCc3nc(NC(=O)N4CCCC4)sc3C2)cnc1Cl` [Compound 57], the Ki (read-out: Ki for PI3Kγ) is less than 100 nM.
As for `COCC(=O)Nc1nc2c(s1)CN(c1cncc(OC)c1)CC2` [Compound 4], the Ki (read-out: Ki for PI3Kγ) is less than 100 nM.
`COc1cc(N2CCc3nc(NC(=O)CNC(=O)c4ccccn4)sc3C2)cnc1OC` [Compound 33]: the Ki (read-out: Ki for PI3Kγ) was less than 100 nM.
In the case of `COc1cc(N2CCc3nc(NC(=O)CCNC(=O)c4ccccn4)sc3C2)cnc1OC` [Compound 32], the Ki (read-out: Ki for PI3Kγ) was less than 100 nM.
For `COc1cc(N2CCc3nc(NC(=O)NCCc4cn(CCF)cn4)sc3C2)cnc1Cl` [Compound 38], the Ki (read-out: Ki for PI3Kγ) is less than 100 nM.
On the same count and under the same terms, as for `COCC(=O)Nc1nc2c(s1)CN(c1cncc(C(F)(F)F)c1)CC2` [Compound 8], the figure is less than 100 nM.
The molecule `COc1cncc(N2CCc3nc(NC(=O)CF)sc3C2)c1` [Compound 19] gave a Ki (Ki for PI3Kγ) of less than 100 nM.
As for `CCNC(=O)Nc1nc2c(s1)CN(c1cncc(C(F)(F)F)c1)CC2` [Compound 6], the Ki (read-out: Ki for PI3Kγ) was less than 100 nM.
As to `COc1cc(N2CCc3nc(NC=O)sc3C2)cnc1OC` [Compound 15], the Ki (read-out: Ki for PI3Kγ) is less than 100 nM.
Regarding `COc1cc(N2CCc3nc(NC(=O)NCCCN(C)C)sc3C2)cnc1Cl` [Compound 37], the Ki (read-out: Ki for PI3Kγ) is less than 100 nM.
Turning to `CCNC(=O)Nc1nc2c(s1)CN(c1cnc(OC)c(OC)c1)CC2` [Compound 10], the Ki (read-out: Ki for PI3Kγ) was less than 100 nM.
On to `CCCOCCNC(=O)Nc1nc2c(s1)CN(c1cnc(OC)c(OC)c1)CC2` [Compound 16], for which the Ki (read-out: Ki for PI3Kγ) is less than 100 nM.
With `CCCOCCNC(=O)Nc1nc2c(s1)CN(c1cncc(C(F)(F)F)c1)CC2` [Compound 12], for the setting “read-out: Ki for PI3Kγ”, the Ki is less than 20 nM.
Take `COc1cc(N2CCc3nc(NC(=O)NCCCO)sc3C2)cnc1Cl` [Compound 50]: the Ki (read-out: Ki for PI3Kγ) is less than 100 nM.
With `CCOCCCNC(=O)Nc1nc2c(s1)CN(c1cnc(Cl)c(OC)c1)CC2` [Compound 39], for the setting “read-out: Ki for PI3Kγ”, the Ki was less than 100 nM.
As to `CC(=O)Nc1nc2c(s1)CN(c1cncc(C(F)(F)F)n1)CC2` [Compound 17], the Ki (read-out: Ki for PI3Kγ) was less than 100 nM.
The same measure, in the same setting: as for `COc1cncc(N2CCc3nc(Nc4cnccn4)sc3C2)c1` [Compound 18, 4,5,6,7-tetrahydro-5-(5-methoxypyridin-3-yl)-N-(pyrazin-2-yl)thiazolo[5,4-c]pyridin-2-amine], the figure is less than 100 nM; as for `COc1ncc(N2CCc3nc(NC(C)=O)sc3C2)nc1OC` [Compound 14, N-(4,5,6,7-tetrahydro-5-(5,6-dimethoxypyrazin-2-yl)thiazolo[5,4-c]pyridin-2-yl)acetamide], less than 20 nM; as for `COc1cc(N2CCc3nc(NC(=O)N4CC(OC)C4)sc3C2)cnc1Cl` [Compound 51], less than 100 nM.
As for `COCCNC(=O)Nc1nc2c(s1)CN(c1cnc(Cl)c(OC)c1)CC2` [Compound 35], the Ki (read-out: Ki for PI3Kγ) is less than 100 nM.
For the molecule `CCOC(=O)CCNC(=O)Nc1nc2c(s1)CN(c1cnc(Cl)c(OC)c1)CC2` [Compound 52], the Ki (read-out: Ki for PI3Kγ) was < 20 nM and 3 nM and < 100 nM.
For `CCOC(=O)CCCNC(=O)Nc1nc2c(s1)CN(c1cnc(Cl)c(OC)c1)CC2` [Compound 34], the Ki (read-out: Ki for PI3Kγ) is less than 100 nM.
